Measured values as given in patent US5885814A, “Vaccine containing a serine protease” (priority 1993, dated 1999).
Read-outs that look alike come from different tables or passages of the source. Square brackets hold non-standard residues; d marks the D form. Peptide text beside a SMILES is read from it. * marks the point of attachment. Sta = CC(C)C[C@H](N)[C@@H](O)CC(=O)O; Isovaleryl = CC(C)CC(=O)*

Assays:
[1] = system: DPP-like protease from F. hepatica E/S products; assay type: biochemical, Fasciola hepatica
Description: The assay mixture contained 200 μl of 20 μM substrate, 100 μl of enzyme solution and 900 μl of 50 mM Hepes, pH 6.8. The reaction was allowed to proceed at 37° C. and stopped by the addition of 200 μl of 1.7M acetic acid. The liberated AMC was measured in a fluorometer with excitation and emission wavelengths of 370 nm and 440 nm, respectively.
The effect of various metal ions on the hydrolytic activity of the enzyme was examined using both gly-pro-AMC and lys-ala-AMC as substrates in assays as described above.

Mammalian DPP2 = settings: J. Biol. Chem. 263 (1988), 6613-6618; cited from earlier work
Mammalian DPP4 = settings: J. Biol. Chem. 263 (1988), 6613-6618; cited from earlier work
[2] = substance 0.5 mM, substrate Gly-Pro-AMC
[3] = substance 0.5 mM, substrate Lys-Ala-AMC
[4] = substance 1 mM, substrate Gly-Pro-AMC
[5] = substance 1 mM, substrate Lys-Ala-AMC
[6] = concentration of 5 mM, gly-pro-AMC and lys-ala-AMC as substrates
[7] = substance 5 mM, substrate Gly-Pro-AMC
[8] = substance 5 mM, substrate Lys-Ala-AMC
[9] = gly-pro-AMC and lys-ala-AMC as substrates
[10] = substance 0.02 mM, substrate Gly-Pro-AMC
[11] = substance 0.02 mM, substrate Lys-Ala-AMC
[12] = substance 0.1 mM, substrate Gly-Pro-AMC
[13] = substance 0.1 mM, substrate Lys-Ala-AMC
[14] = substance 5 μg/ml, substrate Gly-Pro-AMC
[15] = substance 5 μg/ml, substrate Lys-Ala-AMC

[Zn] [Zn, zinc]
inhibition of enzyme activity ([1]; 1 mM concentration, gly-pro-AMC and lys-ala-AMC as substrates): > 85% | Activity remaining (%) Gly-Pro [1, 2]: 80% | Activity remaining (%) Lys-Ala [1, 3]: 37% | Activity remaining (%) Gly-Pro [1, 4]: 3% | Activity remaining (%) Lys-Ala [1, 5]: 14%

[Co] [Co, cobalt]
inhibition of enzyme activity [1, 6]: > 90% | Activity remaining (%) Gly-Pro [1, 4]: 20% | Activity remaining (%) Lys-Ala [1, 5]: 28% | Activity remaining (%) Gly-Pro [1, 7]: 4% | Activity remaining (%) Lys-Ala [1, 8]: 6%

[Ca+2] [Ca, calcium]
effect on enzyme activity (in words) [1, 9]: little effect on enzyme activity | Activity remaining (%) Gly-Pro [1, 2]: 133% | Activity remaining (%) Lys-Ala [1, 3]: 96% | Activity remaining (%) Gly-Pro [1, 4]: 57% | Activity remaining (%) Lys-Ala [1, 5]: 62%

COc1ccc(C[C@H](N)C(=O)N[C@H]2[C@@H](O)[C@H](n3cnc4c(N(C)C)ncnc43)O[C@@H]2CO)cc1 [Puromycin, puromycin]
effect on enzyme activity (in words) [1, 9]: neither showed any inhibitory effect | Activity remaining (%) Gly-Pro [1, 10]: 100% | Activity remaining (%) Lys-Ala [1, 11]: 100% | Activity remaining (%) Gly-Pro [1, 12]: 100% | Activity remaining (%) Lys-Ala [1, 13]: 100% | inhibition of mammalian DPP2 (Mammalian DPP2): will inhibit DPP2 only

aprotinin
effect on enzyme activity (in words) [1, 9]: not inhibited | Activity remaining (%) Gly-Pro [1, 14]: 109% | Activity remaining (%) Lys-Ala [1, 15]: 116%

mercury [Hg]
inhibition of enzyme activity [1, 6]: > 90% | Activity remaining (%) Gly-Pro [1, 4]: 7% | Activity remaining (%) Lys-Ala [1, 5]: 4% | Activity remaining (%) Gly-Pro [1, 7]: 5% | Activity remaining (%) Lys-Ala [1, 8]: 2%

N=C(N)c1ccccc1 [Benzamidine]
effect on enzyme activity (in words) [1, 9]: inhibits the activity | Activity remaining (%) Gly-Pro [1, 4]: 77% | Activity remaining (%) Gly-Pro [1, 7]: 35% | Activity remaining (%) Gly-Pro ([1]; substance 10 mM, substrate Gly-Pro-AMC): 23%

N[C@@H](CS)C(=O)O [Cysteine, cysteine]
activation of the enzyme by thiol activating agents [1]: no activation | Activity remaining (%) Gly-Pro [1, 2]: 104% | Activity remaining (%) Lys-Ala [1, 3]: 112% | Activity remaining (%) Gly-Pro [1, 4]: 104% | Activity remaining (%) Lys-Ala [1, 5]: 105%

[Cd] [Cd, cadmium]
inhibition of enzyme activity [1, 6]: > 90% | Activity remaining (%) Gly-Pro [1, 4]: 26% | Activity remaining (%) Lys-Ala [1, 5]: 19% | Activity remaining (%) Gly-Pro [1, 7]: 6% | Activity remaining (%) Lys-Ala [1, 8]: 5%

bacitracin
effect on enzyme activity (in words) [1, 9]: neither showed any inhibitory effect | Activity remaining (%) Gly-Pro [1, 10]: 100% | Activity remaining (%) Lys-Ala [1, 11]: 100% | Activity remaining (%) Gly-Pro [1, 12]: 100% | Activity remaining (%) Lys-Ala [1, 13]: 100% | inhibition of mammalian DPP4 (Mammalian DPP4): inhibits DPP4 only

OCCS [2-Mercaptoethanol]
activation of the enzyme by thiol activating agents [1]: no activation | Activity remaining (%) Gly-Pro [1, 4]: 87% | Activity remaining (%) Lys-Ala [1, 5]: 75%

CC(C)CC(=O)N[C@H](C(=O)N[C@H](C(=O)N[C@@H](CC(C)C)[C@@H](O)CC(=O)N[C@@H](C)C(=O)N[C@@H](CC(C)C)[C@@H](O)CC(=O)O)C(C)C)C(C)C [Pepstatin] (Isovaleryl-VV[Sta]A[Sta]-OH)
effect on enzyme activity (in words) [1, 9]: not inhibited | Activity remaining (%) Gly-Pro [1, 14]: 108% | Activity remaining (%) Lys-Ala [1, 15]: 92%

[Pb] [Pb, lead]
Activity remaining (%) Gly-Pro [1, 4]: 109% | Activity remaining (%) Lys-Ala [1, 5]: 103% | Activity remaining (%) Gly-Pro [1, 7]: 70% | Activity remaining (%) Lys-Ala [1, 8]: 82%

[Mg+2] [Mg, magnesium]
effect on enzyme activity (in words) [1, 9]: little effect on enzyme activity | Activity remaining (%) Gly-Pro [1, 2]: 116% | Activity remaining (%) Lys-Ala [1, 3]: 105% | Activity remaining (%) Gly-Pro [1, 4]: 78% | Activity remaining (%) Lys-Ala [1, 5]: 76%

O=C(O)CN(CCN(CC(=O)O)CC(=O)O)CC(=O)O [EDTA]
effect on enzyme activity (in words) [1]: not inhibited | Activity remaining (%) Gly-Pro ([1]; pH 6.8, 2000 µM): 108% | Activity remaining (%) Lys-Ala ([1]; pH 6.8, 2000 µM): 121%

[Fe] [Fe, iron]
inhibition of enzyme activity [1, 6]: > 90% | Activity remaining (%) Gly-Pro [1, 4]: 6% | Activity remaining (%) Lys-Ala [1, 5]: 5% | Activity remaining (%) Gly-Pro [1, 7]: 2% | Activity remaining (%) Lys-Ala [1, 8]: 2%

[Mn+2] [Mn, manganese]
effect on enzyme activity (in words) [1, 9]: little effect on enzyme activity | Activity remaining (%) Gly-Pro [1, 2]: 102% | Activity remaining (%) Lys-Ala [1, 3]: 104% | Activity remaining (%) Gly-Pro [1, 4]: 66% | Activity remaining (%) Lys-Ala [1, 5]: 66%

O=S(=O)(F)Cc1ccccc1 [PMSF, phenylmethyl sulfonyl fluoride]
effect on enzyme activity (in words) [1, 9]: inhibited | Activity remaining (%) Gly-Pro ([1]; substance 2 mM, substrate Gly-Pro-AMC): 2% | Activity remaining (%) Lys-Ala ([1]; substance 2 mM, substrate Lys-Ala-AMC): 3%

O[C@H](CS)[C@H](O)CS (racemic) [DTT, dithiothreitol]
activation of the enzyme by thiol activating agents [1]: no activation | Activity remaining (%) Gly-Pro [1, 2]: 77% | Activity remaining (%) Lys-Ala [1, 3]: 61% | Activity remaining (%) Gly-Pro [1, 4]: 90% | Activity remaining (%) Lys-Ala [1, 5]: 62%
